Measured values reported in US12202839B2, “In-flow photooxygenation of aminothienopyridinones generates PTP4A3 phosphatase inhibitors” (University of Virginia Patent Foundation, priority 2018, dated 2025).
“Also recorded” adds a separate entry of the source.

Key:
[1] = target: Recombinant human PTP4A3 phosphatase (Homo sapiens (Human), UniProt O75365); assay: In vitro inhibition of PTP4A3 phosphatase activity (automated enzymatic assay); assay type: biochemical; details: mean of N independent assays, 10-point concentration curves, six replicates; read-out: IC50 (nM) ± SEM
Recombinant human PTP4A3 phosphatase, sequence (O75365 whole entry): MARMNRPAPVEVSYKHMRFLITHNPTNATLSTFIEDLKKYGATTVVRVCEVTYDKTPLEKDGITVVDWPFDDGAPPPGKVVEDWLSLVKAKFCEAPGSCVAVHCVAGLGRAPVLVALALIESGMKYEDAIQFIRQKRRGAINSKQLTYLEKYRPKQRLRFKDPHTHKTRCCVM

[2] = target: recombinant human His6-tagged PTP4A3 (Homo sapiens (Human), UniProt O75365); assay: In vitro biochemical analysis of PTP4A inhibition, DiFMUP substrate; details: for IC50: DiFMUP 12 μM, 25° C., 25 minutes, read-out: IC50 values for Compounds Inhibiting Activity of PTP4A Family Members (mean (nM) ± S.E.M.), PTP4A3; for preference among the PTP4A family members (PTP4A3 versus PTP4A1, PTP4A2), in words: comparison of the IC50 values of Table 4
recombinant human His6-tagged PTP4A3, sequence (O75365 whole entry): as above

[3] = target: recombinant human His6-tagged PTP4A1 (Homo sapiens (Human), UniProt Q93096); assay: as above; details: for IC50: DiFMUP 12 μM, 25° C., 25 minutes, read-out: IC50 values for Compounds Inhibiting Activity of PTP4A Family Members (mean (nM) ± S.E.M.), PTP4A1
recombinant human His6-tagged PTP4A1, sequence (Q93096 whole entry): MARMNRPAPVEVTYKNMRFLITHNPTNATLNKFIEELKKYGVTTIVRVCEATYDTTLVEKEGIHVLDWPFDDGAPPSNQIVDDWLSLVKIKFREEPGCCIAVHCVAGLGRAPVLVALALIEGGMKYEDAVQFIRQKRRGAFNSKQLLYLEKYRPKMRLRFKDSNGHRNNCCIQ

[4] = tested on: Kuramochi; assay: Loss of spheroid viability after 48-hour exposure, preexisting spheroids, CellTiterGlo 3D; assay type: cell-based; details: Homo sapiens, N=3, read-out: Cellular IC50 values for loss of spheroid viability after 48-hour exposure (μM ± S.E.M.)
[5] = tested on: OVCAR4; assay: as above; assay type: cell-based; details: Homo sapiens, OVCAR-4, 48 h, N=3, read-out: Cellular IC50 values for loss of spheroid viability after 48-hour exposure (μM ± S.E.M.)
[6] = tested on: Hs578T; assay: as above; assay type: cell-based; details: Homo sapiens, Hs-578T, N=3, read-out: Cellular IC50 values for loss of spheroid viability after 48-hour exposure (μM ± S.E.M.)
[7] = tested on: MDA-MB-231; assay: as above; assay type: cell-based; details: Homo sapiens, MDA-MB-231 spheroids, N=3, read-out: Cellular IC50 values for loss of spheroid viability after 48-hour exposure (μM ± S.E.M.)
[8] = target: recombinant human His6-tagged PTP4A2 (Homo sapiens (Human), UniProt Q12974); assay: In vitro biochemical analysis of PTP4A inhibition, DiFMUP substrate; details: for IC50: DiFMUP 12 μM, 25° C., 25 minutes, read-out: IC50 values for Compounds Inhibiting Activity of PTP4A Family Members (mean (nM) ± S.E.M.), PTP4A2
recombinant human His6-tagged PTP4A2, sequence (Q12974 whole entry): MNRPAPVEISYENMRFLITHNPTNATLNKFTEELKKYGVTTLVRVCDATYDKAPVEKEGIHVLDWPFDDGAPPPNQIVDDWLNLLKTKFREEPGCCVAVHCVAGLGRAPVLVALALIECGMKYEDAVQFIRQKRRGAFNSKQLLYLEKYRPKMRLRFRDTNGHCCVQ

[9] = tested on: Hs578T; assay: Monolayer cancer cell viability, Alamar blue; assay type: cell-based; details: Homo sapiens, Hs-578T, 48 h, read-out: EC50 (mean μM ± SEM)
[10] = tested on: COV362-47R; assay: Monolayer cancer cell viability, Alamar blue; assay type: cell-based; details: COV362-47R monolayer, 48-hour exposure, read-out: EC50 (mean μM ± SEM)
[11] = tested on: COV362; assay: Monolayer cancer cell viability, Alamar blue; assay type: cell-based; details: 48-hour exposure, read-out: EC50 (mean μM ± SEM)
[12] = tested on: V581; assay: Monolayer cancer cell viability, Alamar blue; assay type: cell-based; details: 48 h, read-out: EC50 (mean μM ± SEM)
[13] = tested on: COV362-47R; assay: Spheroid growth viability, CellTiterGlo 3D; assay type: cell-based; details: COV362-47R spheroid, 48 hour exposure, read-out: EC50 (mean μM ± SEM)
[14] = tested on: COV362; assay: Spheroid growth viability, CellTiterGlo 3D; assay type: cell-based; details: 48 hour exposure, read-out: EC50 (mean μM ± SEM)
[15] = tested on: C1498 (mouse AML); assay: Leukemia/lymphoma cell viability, Alamar blue; assay type: cell-based; details: C1498, 48 h, read-out: EC50 (mean μM ± SEM)
[16] = tested on: OVSAHO; assay: Monolayer cancer cell viability, Alamar blue; assay type: cell-based; details: Homo sapiens, OVSAHO, 48 h, read-out: EC50 (mean μM ± SEM)
[17] = tested on: HL60-VCR (drug resistant human APML); assay: Leukemia/lymphoma cell viability, Alamar blue; assay type: cell-based; details: HL60/VCR, 48 h, read-out: EC50 (mean μM ± SEM)
[18] = tested on: MV-4-11 (human AML/ALL); assay: Leukemia/lymphoma cell viability, Alamar blue; assay type: cell-based; details: MV4-11, 48 h, read-out: EC50 (mean μM ± SEM)
[19] = tested on: HL60 (human APML); assay: Leukemia/lymphoma cell viability, Alamar blue; assay type: cell-based; details: HL-60, 48 h, read-out: EC50 (mean μM ± SEM)
[20] = tested on: U937 (human Histiocytic lymphoma); assay: Leukemia/lymphoma cell viability, Alamar blue; assay type: cell-based; details: U-937, 48 h, read-out: EC50 (mean μM ± SEM)
[21] = tested on: K562 (human CML); assay: Leukemia/lymphoma cell viability, Alamar blue; assay type: cell-based; details: K562, 48 h, read-out: EC50 (mean μM ± SEM)
[22] = tested on: Kuramochi; assay: Spheroid growth viability, CellTiterGlo 3D; assay type: cell-based; details: 48 h, read-out: EC50 (mean μM ± SEM)
[23] = tested on: MOLT4 (human TALL); assay: Leukemia/lymphoma cell viability, Alamar blue; assay type: cell-based; details: MOLT-4, 48 h, read-out: EC50 (mean μM ± SEM)
[24] = tested on: Kasumi (human AML); assay: Leukemia/lymphoma cell viability, Alamar blue; assay type: cell-based; details: 48 h, read-out: EC50 (mean μM ± SEM)
[25] = tested on: OVSAHO; assay: Spheroid growth viability, CellTiterGlo 3D; assay type: cell-based; details: Homo sapiens, 48 h, read-out: EC50 (mean μM ± SEM)
[26] = tested on: V581; assay: Spheroid growth viability, CellTiterGlo 3D; assay type: cell-based; details: 48 h, read-out: EC50 (mean μM ± SEM)
[27] = tested on: OVCAR4; assay: Monolayer cancer cell viability, Alamar blue; assay type: cell-based; details: Homo sapiens, OVCAR-4, 48 h, read-out: EC50 (mean μM ± SEM)
[28] = tested on: OVCAR4; assay: Spheroid growth viability, CellTiterGlo 3D; assay type: cell-based; details: Homo sapiens, OVCAR-4, 48 h, read-out: EC50 (mean μM ± SEM)
[29] = tested on: RS4;11 (human BALL); assay: Leukemia/lymphoma cell viability, Alamar blue; assay type: cell-based; details: RS4-11, 48 h, read-out: EC50 (mean μM ± SEM)

N=C1C(=O)NC(=O)c2cc(-c3ccc(F)cc3)sc21 [Compound 9d, 2-(4-Fluorophenyl)-7-iminothieno[3,2-c]pyridine-4,6(5H,7H)-dione]
IC50 [1]: 71 ± 2.54 nM

N=C1C(=O)N(CC2CC2)C(=O)c2cc(-c3ccccc3)sc21 [Compound 9q, 5-(Cyclopropylmethyl)-7-imino-2-phenylthieno[3,2-c]pyridine-4,6(5H,7H)-dione]
IC50 [1]: 85.7 ± 5.96 nM

N=C1C(=O)NC(=O)c2cc(-c3ccc(F)c(Cl)c3)sc21 [Compound 9n, 2-(3-Chloro-4-fluorophenyl)-7-iminothieno[3,2-c]pyridine-4,6(5H,7H)-dione]
IC50 [1]: 67.7 ± 3 nM

CN1C(=O)C(=N)c2sc(-c3ccccc3)cc2C1=O [Compound 9p, 7-Imino-5-methyl-2-phenylthieno[3,2-c]pyridine-4,6(5H,7H)-dione]
IC50 [1]: 48.9 ± 12 nM
IC50 [2]: 86 nM
preference among the PTP4A family members (PTP4A3 versus PTP4A1, PTP4A2), in words [2]: more pronounced preference for PTP4A3
IC50 [3]: 133 ± 31.7 nM
IC50 [4]: 34.1 ± 8.6 µM
IC50 [5]: 11.5 ± 2.38 µM
IC50 [6]: 10.1 ± 1.93 µM
IC50 [7]: 61.5 ± 9.66 µM

CN1C(=O)C(=O)c2sc(-c3ccccc3)cc2C1=O [NRT-892-04]
IC50 [1]: 32.2 ± 3.52 nM

O=c1[nH]c(=O)c2cc(-c3ccccc3)sc2[nH]1 [JMS-038, 6-phenylthieno[2,3-d]pyrimidine-2,4(1H,3H)-dione, reference compound]
IC50 [2]: > 1000 nM
inhibition of PTP4A3 (in words) ([2]; DiFMUP, 25-minute incubation): failed to inhibit; also recorded: inactive
IC50 [8]: > 1000 nM
inhibition of PTP4A2 (in words) ([8]; DiFMUP, 25-minute incubation): inactive
IC50 [3]: > 1000 nM
inhibition of PTP4A1 (in words) ([3]; DiFMUP, 25-minute incubation): inactive
IC50 [4]: > 50 µM
IC50 [5]: > 50 µM
IC50 [6]: > 50 µM
IC50 [7]: > 50 µM

N=C1C(=O)NC(=O)c2cc(-c3cccc(Cl)c3)sc21 [Compound 9h, 2-(3-Chlorophenyl)-7-iminothieno[3,2-c]pyridine-4,6(5H,7H)-dione]
IC50 [1]: 65.7 ± 4.13 nM

CC(C)(C)C(=O)Oc1ccc(-c2cc3c(s2)C(=N)C(=O)NC3=O)cc1 [Compound 9e, 4-(7-Imino-4,6-dioxo-4,5,6,7-tetrahydrothieno[3,2-c]pyridin-2-yl)phenyl pivalate]
IC50 [1]: 256 ± 12.3 nM

N=C1C(=O)NC(=O)c2cc(-c3ccc(OCCN4CCOCC4)cc3)sc21 [Compound 9o, 7-Imino-2-(4-(2-morpholinoethoxy)phenyl)thieno[3,2-c]pyridine-4,6(5H, 7H)-dione]
IC50 [1]: 98.2 ± 2.49 nM
IC50 [2]: 98.2 nM
preference among the PTP4A family members (PTP4A3 versus PTP4A1, PTP4A2), in words [2]: little preference
IC50 [8]: 73.9 ± 10 nM
IC50 [3]: 43.2 ± 8.5 nM
IC50 [4]: > 50 µM
IC50 [5]: 19.6 ± 4.66 µM
IC50 [6]: 12 ± 3.84 µM
IC50 [7]: > 50 µM

N=C1C(=O)NC(=O)c2cc(-c3cccc(C(F)(F)F)c3)sc21 [Compound 9g, 7-Imino-2-(3-(trifluoromethyl)phenyl)thieno[3,2-c]pyridine-4,6(5H,7H)-dione]
IC50 [1]: 193 ± 6.06 nM

Cc1cccc(-c2cc3c(s2)C(=N)C(=O)NC3=O)c1 [Compound 9i, 7-Imino-2-(m-tolyl)thieno[3,2-c]pyridine-4,6(5H,7H)-dione]
IC50 [1]: 53.4 ± 1.46 nM

N=C1C(=O)NC(=O)c2cc(-c3ccc(OCCCCNC(=O)CC45CC6CC(CC(C6)C4)C5)cc3)sc21 [EJR-876-35]
EC50 [9]: 6.2 µM
EC50 [10]: 25.2 ± 6.2 µM
EC50 [11]: 25.7 ± 5.3 µM
EC50 [12]: > 50 µM
EC50 [13]: > 50 µM
EC50 [14]: 16 ± 3.7 µM
EC50 [15]: 1.2 ± 0.2 µM
EC50 [16]: 18.8 ± 2.2 µM
EC50 [17]: 17.7 ± 3.8 µM
EC50 [18]: 4.5 ± 1.8 µM
EC50 [19]: 1.6 ± 0.2 µM
EC50 [20]: 6.87 ± 0.4 µM
EC50 [21]: 25.6 ± 2.8 µM
EC50 [22]: > 50 µM
EC50 [23]: 1 ± 0.1 µM
EC50 [24]: 4.3 ± 1.3 µM
EC50 [25]: 21.1 ± 2.8 µM
EC50 [26]: 44.4 µM
EC50 [27]: 15.5 ± 4.7 µM
EC50 [28]: 16.7 ± 1.9 µM
EC50 [29]: 2.2 ± 0.4 µM

N=C1C(=O)NC(=O)c2cc(-c3ccccc3F)sc21 [Compound 9l, 2-(2-Fluorophenyl)-7-iminothieno[3,2-c]pyridine-4,6(5H,7H)-dione]
IC50 [1]: 53.4 ± 1.46 nM

N=C1C(=O)NC(=O)c2cc(-c3ccccc3Cl)sc21 [Compound 9k, 2-(2-Chlorophenyl)-7-iminothieno[3,2-c]pyridine-4,6(5H,7H)-dione]
IC50 [1]: 36.1 ± 1.43 nM
IC50 [2]: 36.1 nM
preference among the PTP4A family members (PTP4A3 versus PTP4A1, PTP4A2), in words [2]: more pronounced preference for PTP4A3
IC50 [3]: 49 ± 5 nM
IC50 [4]: > 50 µM
IC50 [5]: 12.3 ± 2.26 µM
IC50 [6]: 14.4 ± 4.91 µM
IC50 [7]: > 50 µM

N=C1C(=O)NC(=O)c2cc(-c3ccc(Cl)cc3)sc21 [Compound 9b, 2-(4-Chlorophenyl)-7-iminothieno[3,2-c]pyridine-4,6(5H,7H)-dione]
IC50 [1]: 41.9 ± 1.15 nM

N=C1C(=O)NC(=O)c2cc(-c3ccccc3)sc21 [Compound 2, 7-Imino-2-phenylthieno[3,2-c]pyridine-4,6(5H,7H)-dione, reference compound]
IC50 [4]: 13.2 ± 0.65 µM
IC50 [5]: 4.42 µM
IC50 [6]: 8.48 ± 2.38 µM
IC50 [7]: 32.7 ± 7.02 µM

COc1cccc(-c2cc3c(s2)C(=N)C(=O)NC3=O)c1 [Compound 9j, 2-(3-Methoxyphenyl)-7-iminothieno[3,2-c]pyridine-4,6(5H,7H)-dione]
IC50 [1]: 47.6 ± 2.68 nM
